According to US20050124493A1, “Herbicidal composition” (priority 2002, published 2005):

System: wheat and barley
Test: Post-emergence greenhouse test of herbicide mixture with safener (Example B1)
Format: in vivo
Conditions: greenhouse pots, mixture of MCPA, bromoxynil and herbicide H1 or H2, alone vs. with safener (admixture or seed dressing), evaluated after 9, 10, 20 and 24 days, 100% action=plant completely dead, 0%=no phytotoxic action
Text: Examples B1: Post-emergence applications of mixtures of MCPA, bromoxynil and the herbicide of formula I wherein R1 and R3 are —C2H5; R4 and R5 together form a group —CR14(R15)—CR16(R17)—O—CR18(R19)—CR20(R21)— wherein R14, R15 R16, R17, R18, R19, R20 and R21 are hydrogen; and G is either hydrogen (=herbicide H1) or (CH3)3CC(O)— (=herbicide H2), with the safener of formula II wherein Rs1 is chlorine and Rs2 is 1-methylhexyl, in wheat and barley, and together with 3 different weeds.
The test plants are grown to a post-application stage in pots under greenhouse conditions. A standard soil is used as cultivation substrate. At a post-emergence stage, the herbicides, both on their own and in admixture with the safener, are applied to the test plants or to cultivated plants seed-dressed with safener. The application is carried out using an emulsion (prepared from a 25% emulsifiable concentrate (Example F1, b)) of the test substances using 500 litres of water per ha. The rates of application depend on the optimum concentrations ascertained under field conditions and greenhouse conditions. The tests are evaluated after 9, 10, 20 and 24 days (100% action=plant is completely dead, 0% action=no phytotoxic action).

CCCCCC(C)OC(=O)COc1ccc(Cl)c2cccnc12 (stereo not shown) [safener]
damage caused to the cultivated plants by the herbicide mixture (phytotoxic action): significantly reduce the damage
